Measurements taken from patent publication US12441768B2, “Compositions and methods for treating endometriosis” (EndoMet Biosciences, Inc., priority 2018, dated 2025).
Where a SMILES comes first, the peptide text is derived from it. [ ]: non-standard residue; d: D form. The star is where a group is joined. ξ: configuration not given here. NMeW = CN[C@@H](Cc1c[nH]c2ccccc12)C(=O)O; Palmitoyl = CCCCCCCCCCCCCCCC(=O)*; ξαMeV = CC(C)C(C)(N)C(=O)O; ξαMeS = CC(N)(CO)C(=O)O

Assays:
[1] = molecular target: Wnt-responsive promoter (TCF/LEF); test: Wnt-dependent luciferase reporter assay; type: cell-based, murine
Method: The luciferase reporter assay is commonly used as a tool to study gene expression at the transcriptional level. Peptides from libraries described herein were characterized for ability to suppress transcription in cells with luciferase expression controlled by a Wnt-responsive promoter. Peptides were added to cells transfected with luciferase gene downstream of a Wnt-responsive promoter. Cells were stimulated with Wnt3a protein and incubated with peptides from libraries described herein. Luminescence was recorded to determine the peptides with the highest β-catenin-inhibiting activity. EC50 values were calculated based on the inhibition of luminescence and expressed as concentration (uM) in Table 5.
Peptides were assessed for their ability to inhibit Wnt signaling. Murine 3T3 fibroblasts that express luciferase under a Wnt-responsive promoter (TCF/LEF) (Enzo Life Sciences, Farmingdale, NY) were stimulated with Wnt3a in the presence of increasing concentrations of peptide inhibitor (Hit 1: SEQ ID NO:217, Hit 2: SEQ ID NO:224, Hit 3: SEQ ID NO:228, Hit 4: SEQ ID NO:227, Hit 5: SEQ ID NO:220, Hit 6: SEQ ID NO:168. Hit 7: SEQ ID NO:226) or with vehicle control (FIG. 2A).

β-catenin = molecular target: T1, β-catenin (Homo sapiens, UniProt P35222); test: KD50 measurement using competitive fluorescence polarization (FP) with labelled TCF4; type: binding; details: fluorescence polarization, β-catenin; for Kd: read-out: β-Cat FP KD
T1 sequence (P35222 1-781): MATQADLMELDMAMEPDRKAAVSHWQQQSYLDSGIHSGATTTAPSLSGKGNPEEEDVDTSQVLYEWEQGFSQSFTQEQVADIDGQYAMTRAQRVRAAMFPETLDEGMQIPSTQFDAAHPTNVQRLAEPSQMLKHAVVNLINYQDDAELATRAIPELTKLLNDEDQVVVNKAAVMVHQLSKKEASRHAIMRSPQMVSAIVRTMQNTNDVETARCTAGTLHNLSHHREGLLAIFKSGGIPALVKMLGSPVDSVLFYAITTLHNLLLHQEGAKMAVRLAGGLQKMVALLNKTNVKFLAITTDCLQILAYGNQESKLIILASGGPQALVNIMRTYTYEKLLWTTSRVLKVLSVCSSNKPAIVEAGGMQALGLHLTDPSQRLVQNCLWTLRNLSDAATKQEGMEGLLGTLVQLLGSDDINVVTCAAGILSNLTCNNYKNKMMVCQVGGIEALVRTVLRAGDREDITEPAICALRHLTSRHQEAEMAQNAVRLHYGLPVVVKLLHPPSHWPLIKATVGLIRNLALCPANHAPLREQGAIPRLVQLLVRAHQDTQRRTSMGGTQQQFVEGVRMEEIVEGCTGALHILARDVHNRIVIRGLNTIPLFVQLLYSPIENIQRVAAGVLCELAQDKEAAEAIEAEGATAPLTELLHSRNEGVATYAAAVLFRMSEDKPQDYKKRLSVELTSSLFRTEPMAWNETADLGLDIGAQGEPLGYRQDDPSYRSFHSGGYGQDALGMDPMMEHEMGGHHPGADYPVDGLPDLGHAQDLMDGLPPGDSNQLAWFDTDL
How it was run: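 5 nM labelled TCF4 was combined with 100 nM β-catenin at room temperature, then inhibitor was titrated in serial dilutions from 10 nM to 30 uM. Polarization was read at excitation 470 nm, emission 520 nm; displacement lowers the signal. Three independent experiments.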

Structure (SMILES)	EC50 [1] [µM]	β-Cat FP Hill slope (β-catenin)	Kd (β-catenin) [nM]
CC[C@H](C)[C@H](NC(=O)[C@H](CO)NC(=O)[C@H](CCC(=O)O)NC(=O)[C@H](Cc1c[nH]c2ccccc12)N(C)C(=O)[C@@H](N)Cc1c[nH]c2ccccc12)C(=O)N[C@@H](CC(C)C)C(=O)N[C@@H](CC(=O)O)C(=O)N[C@@H](CCC(=O)O)C(=O)N[C@@H](Cc1c[nH]cn1)C(=O)NC(C)(C(=O)N[C@@H](CCC(N)=O)C(=O)N[C@@H](CCCNC(=N)N)C(=O)N[C@H](C(=O)N[C@@H](Cc1c[nH]c2ccccc12)C(=O)NCC(N)=O)C(C)C)C(C)C (some centres unmarked) [compound 39] (HELM PEPTIDE1{W.[meW].E.S.I.L.D.E.H.[CC(C)C(C)(N[*:1])C(=O)[*:2]].Q.R.V.W.G.[am]}$$$$V2.0)	> 30	0.89	< 400
CC[C@H](C)[C@H](NC(=O)C(C)(CO)NC(=O)[C@H](CCC(=O)O)NC(=O)[C@H](Cc1c[nH]c2ccccc12)N(C)C(=O)[C@@H](N)Cc1c[nH]c2ccccc12)C(=O)N[C@@H](CC(C)C)C(=O)N[C@@H](CC(=O)O)C(=O)N[C@@H](CCC(=O)O)C(=O)N[C@@H](Cc1c[nH]cn1)C(=O)N[C@H](C(=O)N[C@@H](CCC(N)=O)C(=O)N[C@@H](CCCNC(=N)N)C(=O)N[C@H](C(=O)N[C@@H](Cc1c[nH]c2ccccc12)C(=O)NCC(N)=O)C(C)C)C(C)C (some centres unmarked) [compound 40] (HELM PEPTIDE1{W.[meW].E.[CC(CO)(N[*:1])C(=O)[*:2]].I.L.D.E.H.V.Q.R.V.W.G.[am]}$$$$V2.0)	> 30	0.88	< 400
CCCCCCCCCCCCCCCC(=O)N[C@@H](Cc1c[nH]c2ccccc12)C(=O)N(C)[C@@H](Cc1c[nH]c2ccccc12)C(=O)N[C@@H](CCC(=O)O)C(=O)NC(C)(CO)C(=O)N[C@H](C(=O)N[C@@H](CC(C)C)C(=O)N[C@@H](CC(=O)O)C(=O)N[C@@H](CCC(=O)O)C(=O)N[C@@H](Cc1c[nH]cn1)C(=O)NC(C)(C(=O)N[C@@H](CCC(N)=O)C(=O)N[C@@H](CCCNC(=N)N)C(=O)N[C@H](C(=O)N[C@@H](Cc1c[nH]c2ccccc12)C(=O)O)C(C)C)C(C)C)[C@@H](C)CC (some centres unmarked) [compound 397] (Palmitoyl-W[NMeW]E[ξαMeS]ILDEH[ξαMeV]QRVW-OH)	7.5 to 15		> 30000
CC[C@H](C)[C@@H]1NC(=O)[C@@H](NC(=O)[C@H](CCC(N)=O)NC(=O)[C@H](C)N(C)C(=O)[C@@H](N)Cc2c[nH]c3ccccc23)CCCCNC(=O)CC[C@@H](C(=O)N[C@@H](Cc2c[nH]cn2)C(=O)N[C@H](C(=O)N[C@@H](CCC(N)=O)C(=O)N[C@@H](CCCNC(=N)N)C(=O)N[C@H](C(=O)N[C@@H](Cc2c[nH]c3ccccc23)C(=O)NCC(N)=O)C(C)C)C(C)C)NC(=O)[C@H](CC(=O)O)NC(=O)[C@H](CC(C)C)NC1=O [compound 401] (HELM PEPTIDE1{W.[meA].Q.K.I.L.D.E.H.V.Q.R.V.W.G.[am]}$PEPTIDE1,PEPTIDE1,4:R3-8:R3$$$V2.0)	> 30	0.7	400 to 1000
CC[C@H](C)[C@@H]1NC(=O)[C@@H](NC(=O)[C@H](CCC(N)=O)NC(=O)[C@H](C)N(C)C(=O)[C@H](Cc2c[nH]c3ccccc23)NC(C)=O)CCCCNC(=O)CC[C@@H](C(=O)N[C@@H](Cc2c[nH]cn2)C(=O)N[C@H](C(=O)N[C@@H](CCC(N)=O)C(=O)N[C@@H](CCCNC(=N)N)C(=O)N[C@H](C(=O)N[C@@H](Cc2c[nH]c3ccccc23)C(=O)NCC(N)=O)C(C)C)C(C)C)NC(=O)[C@H](CC(=O)O)NC(=O)[C@H](CC(C)C)NC1=O [compound 402] (HELM PEPTIDE1{[ac].W.[meA].Q.K.I.L.D.E.H.V.Q.R.V.W.G.[am]}$PEPTIDE1,PEPTIDE1,5:R3-9:R3$$$V2.0)	> 30	0.7	< 400
CC[C@H](C)[C@@H]1NC(=O)[C@@H](NC(=O)[C@H](CCC(N)=O)NC(=O)[C@H](C)N(C)C(=O)[C@@H](N)Cc2c[nH]c3ccccc23)CCCCNC(=O)CC[C@@H](C(=O)N[C@@H](Cc2c[nH]cn2)C(=O)N[C@H](C(=O)N[C@@H](CCC(N)=O)C(=O)N[C@@H](CCCNC(=N)N)C(=O)N[C@H](C(=O)N[C@@H](Cc2c[nH]c3ccccc23)C(=O)NCC(N)=O)C(C)C)C2CCCCC2)NC(=O)[C@H](CC(=O)O)NC(=O)[C@H](CC(C)C)NC1=O [compound 403] (HELM PEPTIDE1{W.[meA].Q.K.I.L.D.E.H.[O=C([C@@H](N[*:1])C1CCCCC1)[*:2]].Q.R.V.W.G.[am]}$PEPTIDE1,PEPTIDE1,4:R3-8:R3$$$V2.0)	> 30	0.76	< 400
CC[C@H](C)[C@@H]1NC(=O)[C@@H](NC(=O)[C@H](CCC(N)=O)NC(=O)[C@H](C)N(C)C(=O)[C@H](Cc2c[nH]c3ccccc23)NC(C)=O)CCCCNC(=O)CC[C@@H](C(=O)N[C@@H](Cc2c[nH]cn2)C(=O)N[C@H](C(=O)N[C@@H](CCC(N)=O)C(=O)N[C@@H](CCCNC(=N)N)C(=O)N[C@H](C(=O)N[C@@H](Cc2c[nH]c3ccccc23)C(=O)NCC(N)=O)C(C)C)C2CCCCC2)NC(=O)[C@H](CC(=O)O)NC(=O)[C@H](CC(C)C)NC1=O [compound 404] (HELM PEPTIDE1{[ac].W.[meA].Q.K.I.L.D.E.H.[O=C([C@@H](N[*:1])C1CCCCC1)[*:2]].Q.R.V.W.G.[am]}$PEPTIDE1,PEPTIDE1,5:R3-9:R3$$$V2.0)	> 30	0.79	< 400
CC[C@H](C)[C@H](NC(=O)[C@H](CO)NC(=O)[C@H](CCC(=O)O)NC(=O)[C@@H]1CCCN1C(=O)[C@H](CC(C)C)NC(=O)[C@H](CCCNC(=N)N)NC(=O)CCN)C(=O)N[C@@H](CC(C)C)C(=O)N[C@@H](CC(=O)O)C(=O)N[C@@H](CCC(=O)O)C(=O)N[C@@H](Cc1c[nH]cn1)C(=O)N[C@H](C(=O)N[C@@H](CCC(N)=O)C(=O)N[C@@H](CCCNC(=N)N)C(=O)N[C@H](C(=O)N[C@@H](Cc1c[nH]c2ccccc12)C(=O)N1CCC[C@H]1C(N)=O)C(C)C)C(C)C [compound 410] (HELM PEPTIDE1{[bAla].R.L.P.E.S.I.L.D.E.H.V.Q.R.V.W.P.[am]}$$$$V2.0)	> 30	1.6	400 to 1000
CC[C@H](C)[C@H](NC(=O)[C@@H](NC(=O)[C@H](CCC(N)=O)NC(=O)[C@@H]1CCCN1C(=O)[C@H](CC(=O)O)NC(=O)[C@H](CCC(=O)O)NC(=O)[C@H](CCC(=O)O)NC(=O)CCNC(C)=O)[C@@H](C)O)C(=O)N[C@@H](CC(C)C)C(=O)N[C@@H](CC(=O)O)C(=O)N[C@@H](CC(=O)O)C(=O)N[C@@H](Cc1c[nH]cn1)C(=O)N[C@@H](CC(C)C)C(=O)N[C@@H](CO)C(=O)N[C@@H](CCCNC(=N)N)C(=O)N[C@H](C(=O)N[C@@H](CC(C)C)C(=O)N[C@@H](CCCCN)C(N)=O)C(C)C [compound 412] (HELM PEPTIDE1{[ac].[bAla].E.E.D.P.Q.T.I.L.D.D.H.L.S.R.V.L.K.[am]}$$$$V2.0)	> 30	0.7	1000 to 10000
CC[C@H](C)[C@H](NC(=O)[C@H](CO)NC(=O)[C@H](CCC(=O)O)NC(=O)[C@@H]1CCCN1C(=O)[C@H](CC(C)C)NC(=O)[C@H](CCCNC(=N)N)NC(=O)CCNC(C)=O)C(=O)N[C@@H](CC(C)C)C(=O)N[C@@H](CC(=O)O)C(=O)N[C@@H](CCC(=O)O)C(=O)N[C@@H](Cc1c[nH]cn1)C(=O)N[C@H](C(=O)N[C@@H](CCC(N)=O)C(=O)N[C@@H](CCCNC(=N)N)C(=O)N[C@H](C(=O)N[C@@H](Cc1c[nH]c2ccccc12)C(=O)N1CCC[C@H]1C(N)=O)C(C)C)C(C)C [compound 413] (HELM PEPTIDE1{[ac].[bAla].R.L.P.E.S.I.L.D.E.H.V.Q.R.V.W.P.[am]}$$$$V2.0)	> 30	0.7	< 400
